Patent US4610868A, “Lipid matrix carriers for use in drug delivery systems” (The Liposome Company, Inc., priority 1984, dated 1986)
Read-outs that look alike come from different tables or passages of the source.

Assays:
[1] = type: in vivo, Swiss Webster mice; settings: 80 mg/kg IM
Protocol: LMCs containing oxytetracycline--HCl (Sigma Chemical Co., St. Louis, Missouri) were prepared as described in Section 6.1.3. supra. The LMCs thus produced contained 20 mg of oxytetracycline per ml of hydrated LMCs, as determined by the bioassay described in Section 6.1.3. Ten 25 g female adult Swiss Webster mice were then injected IM with 80 mg/kg of oxytetracycline in one hind leg, using either LMC-oxytetracycline or the free drug. In both cases, the antibiotic was administered in 0.1 ml of physiological saline.
At the times indicated in FIG. 3, samples of clean-catch urine were taken and aliquots were plated onto lawns of S. aureus (ATCC 11632) as described in Section 7.1. Antibiotic levels were quantified by comparison to an oxytetracycline standard curve. […] By 174 hours following injection, urinary levels of oxytetracycline were undetectable.

[2] = Fluorescence/retention of oxytetracycline in skin after topical administration; type: in vivo, Swiss Webster mice; settings: 0.2 ml of 100 mg/ml
Protocol: (§1) In the following experiment, two groups of adult male Swiss Webster mice were treated with oxytetracycline as follows: 5 mice per group were depilitated on the back of their necks and 0.2 ml of 100 mg/ml oxytetracycline was topically applied to the depilitated area. The control group received oxytetracycline in PBS whereas the second group received oxytetracycline encapsulated in LMCs prepared as described in Section 6.1.3.
On a daily basis the treated area of each mouse was illuminated with ultraviolet light and inspected for fluorescence. Since oxytetracycline is fluorescent, the fluorescence of the treated skin is an indication of the presence of the drug in the skin. Fluorescence could be detected for only 2 days in the control group treated with the aqueous solution of oxytetracycline. […] In contrast, fluorescence could be detected up to 4 days in the group that was treated with oxytetracycline-LMCs.

[3] = Systemic release (urine) of oxytetracycline after topical administration; type: in vivo, Swiss Webster mice; settings: 0.2 ml of 100 mg/ml, 1, 18, 44 and 72 hours
Protocol: as §1
Clean catch urine samples were taken at 1, 18, 44, and 72 hours after topical application and aliquots were analyzed for the presence of oxytetracycline using the bioassay previously described in Sections 6.1.2, 7.1, and 7.2.

[4] = Entrapment of indomethacin or diazepam in LMCs (radiolabeled tracer); type: physicochemical
Protocol: Ten mg of indomethacin (Sigma Chemical Co., St. Louis, Missouri) plus 10 μl of the ^14 C-labeled drug as a tracer (New England Nuclear, Boston, Massachusetts, 22 mCi/m mole) were dissolved in 1.5 ml of chloroform. This solution was then combined with 4 ml of corn oil and 150 mg of EPC, and the mixture was slowly extruded through a 21 gauge syringe needle into 20 ml of PBS at 45° C., with stirring. After combining all constituents, the mixture was roto-evaporated at 45° C. to remove the chloroform. One ml of the resulting suspension was then combined with an equal volume of Ficoll-Paque, the mixture was centrifuged at 10,000×g for 10 minutes, and the LMCs, which floated to the top of the gradient, were isolated.
By following the procedure described in Section 6.2.1., supra, 5 mg of diazepam (Abbott Laboratories, N. Chicago, Illinois) with a trace of the ^3 H-labeled drug added (New England Nuclear, Boston, Massachusetts, 76.7 Ci/m mole) were incorporated into LMCs.

[5] = design: species or system Hartley guinea pigs; settings: guinea pig, in vivo, ip
Protocol: To investigate the drug release characteristics of LMCs in vivo, gentamicin-LMC preparations were injected intraperitoneally (IP) into experimental animals. The final distribution of the drug was then compared with that of similarly injected free gentamicin.
LMCs were prepared as described in Section 6.1.2., using 6 ml of corn oil, 0.3 ml of PBS, 40 mg of EPC, 100 mg of gentamicin (with a small amount of I-gentamicin added as a tracer) and 40 ml of acetone. The resulting product contained 0.5 mg of gentamicin per mg of dry weight LMCs, as determined by gamma counting.
Two groups of 850 g female adult Hartley guinea pigs (Hilltop Farms, Scottsdale, Pennsylvania) were treated as follows: Animals in one group each received 0.3 ml of 100 μg/ml gentamicin in saline (with a small amount of ^125 I-gentamicin added as a tracer), IP. IP injection leads to rapid systemic distribution of the injected material. Animals in the other group received the same quantity of gentamicin entrapped in LMCs. At various times after injection pairs of animals were sacrificed, the hearts, spleens, kidneys and livers were removed, and the quantity of gentamicin in each organ was determined by counting in a crystal gamma counter.

[6] = Entrapment of ^14C-sucrose/streptomycin in LMCs (liquid scintillation counting); type: physicochemical; settings: with streptomycin, corn oil/EPC, water-in-oil emulsion
Protocol: Streptomycin (Sigma Chemical Co., St. Louis, Missouri) and ^14 C-sucrose (New England Nuclear, Boston, Massachusetts, 31.3 μCi/m mole) were used together as model water soluble compounds for entrapment in conjunction with corn oil and EPC. The ratio of corn oil to EPC used to prepare the emulsion was […] (weight/weight basis). The water-in-oil emulsion was prepared as follows: 6 ml of corn oil, 40 mg of EPC and 0.3 ml of phosphate buffered saline (PBS) containing 10 μl of ^14 C-sucrose and 100 mg of streptomycin were sonicated together for 45 seconds, using a Branson Model E sonicator at 22° C. The resulting water-in-oil emulsion was then extruded slowly through a 21 gauge syringe needle into 40 ml of the saturated acetone solution, with rapid stirring.
A cloudy suspension of LMCs resulted that was centrifuged at 10,000×gfor 10 minutes at 4° C. The clear supernatant fluid was removed, and the pellet was washed three times with cold saturated acetone, dried under a nitrogen stream, and resuspended in 10 ml of PBS. The hydrated LMCs were then diluted with an equal volume of Ficoll-Paque (Pharmacia Fine Chemicals, Piscataway, New Jersey) and centrifuged at 10,000×g for 10 minutes. […]
In FIG. 4, the data are based upon the stability of streptomycin-LMCs in serum. […] At the times indicated, the absorbances of the samples at 400 and 600 nm were determined, and the 400/600 ratios were computed.

CN(C)C1C(=O)C(C(N)=O)=C(O)C2(O)C(=O)C3=C(O)c4c(O)cccc4C(C)(O)C3C(O)C12 (stereo not drawn) [oxytetracycline]
time within which urinary levels diminished to zero [1]: ≤ 30 h | duration of detectable skin fluorescence [2]: 2 days | removal from skin by washing [2]: could easily be washed off | oxytetracycline in urine [3]: No detectable levels

CN1C(=O)CN=C(c2ccccc2)c2cc(Cl)ccc21 [diazepam]
degree of entrapment [4]: 93%

gentamicin
Recovery of Gentamicin, Heart ([5]; 15 min): 0.17 % of Total Administered | Recovery of Gentamicin, Kidney ([5]; 15 min): 2.53 % of Total Administered | Recovery of Gentamicin, Liver ([5]; 15 min): 2.60 % of Total Administered | Recovery of Gentamicin, Spleen ([5]; 15 min): 0.09 % of Total Administered | Recovery of Gentamicin, Heart ([5]; 30 min): 1.23 % of Total Administered | Recovery of Gentamicin, Kidney ([5]; 30 min): 4.32 % of Total Administered | Recovery of Gentamicin, Liver ([5]; 30 min): 3.14 % of Total Administered | Recovery of Gentamicin, Spleen ([5]; 30 min): 0.08 % of Total Administered | Recovery of Gentamicin, Heart ([5]; 60 min): 0.15 % of Total Administered | Recovery of Gentamicin, Kidney ([5]; 60 min): 7.04 % of Total Administered | Recovery of Gentamicin, Liver ([5]; 60 min): 2.28 % of Total Administered | Recovery of Gentamicin, Spleen ([5]; 60 min): 0.05 % of Total Administered | Recovery of Gentamicin, Heart ([5]; 120 min): 0.13 % of Total Administered | Recovery of Gentamicin, Kidney ([5]; 120 min): 7.27 % of Total Administered | Recovery of Gentamicin, Liver ([5]; 120 min): 2.00 % of Total Administered | Recovery of Gentamicin, Spleen ([5]; 120 min): 0.04 % of Total Administered

OC[C@H]1O[C@@](CO)(O[C@H]2O[C@H](CO)[C@@H](O)[C@H](O)[C@H]2O)[C@@H](O)[C@@H]1O [^14 C-sucrose, sucrose]
initial amount of ^14 C-sucrose entrapped in the LMCs [6]: 96.5%

COc1ccc2c(c1)c(CC(=O)O)c(C)n2C(=O)c1ccc(Cl)cc1 [indomethacin]
degree of entrapment [4]: 84% | degree of entrapment (starting amount incorporated into the LMCs) ([4]; corn oil/EPC, chloroform): 84%
